Data reported in patent US10457707B2, “Substituted urea depsipeptide analogs as activators of the CLPP endopeptidase” (priority 2015, dated 2019).
In brackets after ≈: the same amount, converted by molar mass. *1 amine or outer side, *2 acyl side, *3 side chain or, on linkers, in order; H or OH if unused. Where a SMILES comes first, the peptide text is derived from it. Bridges are numbered along the chain shown (N, C = ends). [ ]: non-standard residue; d: D form. The star is where a group is joined. ξ: configuration not given here. Phe(3,5-F2) = N[C@@H](Cc1cc(F)cc(F)c1)C(=O)O; NH(4-OCF3-phenyl) = FC(F)(F)Oc1ccc(N*)cc1; Pro(4S-Me) = C[C@@H]1CN[C@H](C(=O)O)C1; Pro(4R-Me) = C[C@H]1CN[C@H](C(=O)O)C1; ξPro(4R-OH) = O=C(O)C1C[C@@H](O)CN1; ξPro(4R-Me) = C[C@H]1CNC(C(=O)O)C1; NH(4-Et-phenyl) = CCc1ccc(N*)cc1; NMeT = CN[C@H](C(=O)O)[C@@H](C)O; NH(4-Me-phenyl) = Cc1ccc(N*)cc1; aThr = C[C@H](O)[C@H](N)C(=O)O; NMeA = CN[C@@H](C)C(=O)O; CO = O=C([*:1])[*:2]

Experiments:
[1] = test system: Staphylococcus aureus, USA 300 wherein ClpP is inactivated; experiment: Minimal inhibitory concentration assay; assay type: cell-based
In short: (§1)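 MIC is the lowest concentration stopping visible growth after overnight aerobic culture at 37 °C, per CLSI microbroth dilution (about 10^5 cfu/mL; two-fold series, top final 200 μM). ClpP-inactivated S. aureus USA 300 tested alongside parent strain to probe ClpP-mediated killing.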

[2] = test system: Staphylococcus aureus, USA 300; experiment: Minimal inhibitory concentration assay; assay type: cell-based; conditions: USA300, read-out: Minimal Inhibitory Concentrations S. aureus USA 300
In short: as §1

Structure (SMILES) | Minimal Inhibitory Concentrations S. aureus USA 300 ΔClpP [1] | MIC [2]
C[C@H]1C[C@H]2C(=O)O[C@@H](C)[C@H](NC(=O)[C@H](Cc3cc(F)cc(F)c3)NC(=O)Nc3ccc(OC(F)(F)F)cc3)C(=O)N3CCC[C@H]3C(=O)N(C)[C@@H]([C@@H](C)O)C(=O)N[C@@H](C)C(=O)N2C1 [Compound 36, (S)-3-(3,5-difluorophenyl)-N-((2S,6S,9S,11aS,17S,18S,20aS)-9-((R)-1-hydroxyethyl)-2,6,10,18-tetramethyl-5,8,11,16,20-pentaoxohexadecahydro-1H,5H,16H-dipyrrolo[2,1-c:2′,1′-l][1]oxa[4,7,10,13]tetraazacyclohexadecin-17-yl)-2-(3-(4-(trifluoromethoxy)phenyl)ureido)propanamide] ({NH(4-OCF3-phenyl)-CO}-[Phe(3,5-F2)][aThr]P[NMeT]A[Pro(4S-Me)]; ester 2-C) | 50 µM | 0.1 µM (≈ 0.0882 µg/mL)
Cc1ccc(NC(=O)N[C@@H](Cc2cc(F)cc(F)c2)C(=O)N[C@@H]2C(=O)N3CCC[C@H]3C(=O)N(C)[C@@H]([C@@H](C)O)C(=O)N[C@@H](C)C(=O)N3C[C@@H](C)C[C@H]3C(=O)O[C@H]2C)cc1 [Compound 35, (S)-3-(3,5-difluorophenyl)-N-((2S,6S,9S,11aS,17S,18S,20aS)-9-((R)-1-hydroxyethyl)-2,6,10,18-tetramethyl-5,8,11,16,20-pentaoxohexadecahydro-1H,5H,16H-dipyrrolo[2,1-c:2′,1′-l][1]oxa[4,7,10,13]tetraazacyclohexadecin-17-yl)-2-(3-(p-tolyl)ureido)propanamide] ({NH(4-Me-phenyl)-CO}-[Phe(3,5-F2)][aThr]P[NMeT]A[Pro(4S-Me)]; ester 2-C) | 200 µM | 0.2 µM (≈ 0.162 µg/mL)
Cc1ccc(NC(=O)N[C@@H](Cc2cc(F)cc(F)c2)C(=O)N[C@@H]2C(=O)N3CCC[C@H]3C(=O)N(C)[C@@H]([C@@H](C)O)C(=O)N[C@@H](C)C(=O)N3C[C@H](C)C[C@H]3C(=O)O[C@H]2C)cc1 [Compound 38, (S)-3-(3,5-difluorophenyl)-N-((2R,6S,9S,11aS,17S,18S,20aS)-9-((R)-1-hydroxyethyl)-2,6,10,18-tetramethyl-5,8,11,16,20-pentaoxohexadecahydro-1H,5H,16H-dipyrrolo[2,1-c:2′,1′-l][1]oxa[4,7,10,13]tetraazacyclohexadecin-17-yl)-2-(3-(p-tolyl)ureido)propanamide] ({NH(4-Me-phenyl)-CO}-[Phe(3,5-F2)][aThr]P[NMeT]A[Pro(4R-Me)]; ester 2-C) | 200 µM | 0.1 µM (≈ 0.0812 µg/mL)
CCc1ccc(NC(=O)N[C@@H](Cc2cc(F)cc(F)c2)C(=O)N[C@@H]2C(=O)N3CCC[C@H]3C(=O)N(C)[C@@H]([C@@H](C)O)C(=O)N[C@@H](C)C(=O)N3C[C@H](C)C[C@H]3C(=O)O[C@H]2C)cc1 [Compound 42, (S)-3-(3,5-difluorophenyl)-2-(3-(4-ethylphenyl)ureido)-N-((2R,6S,9S,11aS,17S,18S,20aS)-9-((R)-1-hydroxyethyl)-2,6,10,18-tetramethyl-5,8,11,16,20-pentaoxohexadecahydro-1H,5H,16H-dipyrrolo[2,1-c:2′,1′-l][1]oxa[4,7,10,13]tetraazacyclohexadecin-17-yl)propanamide] ({NH(4-Et-phenyl)-CO}-[Phe(3,5-F2)][aThr]P[NMeT]A[Pro(4R-Me)]; ester 2-C) | 100 µM | 0.1 µM (≈ 0.0826 µg/mL)
Cc1ccc(NC(=O)N[C@@H](Cc2cc(F)cc(F)c2)C(=O)N[C@@H]2C(=O)N3C[C@H](O)CC3C(=O)N(C)[C@@H](C)C(=O)N[C@@H](C)C(=O)N3C[C@H](C)CC3C(=O)O[C@H]2C)cc1 (stereo partly drawn) [Compound 31, (S)-3-(3,5-difluorophenyl)-N-((2S,6S,9S,11aS,13R,17S,18S,20aS)-13-hydroxy-2,6,9,10,18-pentamethyl-5,8,11,16,20-pentaoxohexadecahydro-1H,5H,16H-dipyrrolo[2,1-c:2′,1′-l][1]oxa[4,7,10,13]tetraazacyclohexadecin-17-yl)-2-(3-(p-tolyl)ureido)propanamide] ({NH(4-Me-phenyl)-CO}-[Phe(3,5-F2)][aThr][ξPro(4R-OH)][NMeA]A[ξPro(4R-Me)]; ester 2-C) | >200 µM | 1.56 µM (≈ 1.24 µg/mL)
C[C@@H]1C[C@H]2C(=O)O[C@@H](C)[C@H](NC(=O)[C@H](Cc3cc(F)cc(F)c3)NC(=O)Nc3ccc(OC(F)(F)F)cc3)C(=O)N3CCC[C@H]3C(=O)N(C)[C@@H]([C@@H](C)O)C(=O)N[C@@H](C)C(=O)N2C1 [Compound 41, (S)-3-(3,5-difluorophenyl)-N-((2R,6S,9S,11aS,17S,18S,20aS)-9-((R)-1-hydroxyethyl)-2,6,10,18-tetramethyl-5,8,11,16,20-pentaoxohexadecahydro-1H,5H,16H-dipyrrolo[2,1-c:2′,1′-l][1]oxa[4,7,10,13]tetraazacyclohexadecin-17-yl)-2-(3-(4-(trifluoromethoxy)phenyl)ureido)propanamide] ({NH(4-OCF3-phenyl)-CO}-[Phe(3,5-F2)][aThr]P[NMeT]A[Pro(4R-Me)]; ester 2-C) | 50 µM | 0.02 µM (≈ 0.0176 µg/mL)
CCc1ccc(NC(=O)N[C@@H](Cc2cc(F)cc(F)c2)C(=O)N[C@@H]2C(=O)N3CCC[C@H]3C(=O)N(C)[C@@H]([C@@H](C)O)C(=O)N[C@@H](C)C(=O)N3C[C@@H](C)C[C@H]3C(=O)O[C@H]2C)cc1 [Compound 37, (S)-3-(3,5-difluorophenyl)-2-(3-(4-ethylphenyl)ureido)-N-((2S,6S,9S,11aS,17S,18S,20aS)-9-((R)-1-hydroxyethyl)-2,6,10,18-tetramethyl-5,8,11,16,20-pentaoxohexadecahydro-1H,5H,16H-dipyrrolo[2,1-c:2′,1′-l][1]oxa[4,7,10,13]tetraazacyclohexadecin-17-yl)propanamide] ({NH(4-Et-phenyl)-CO}-[Phe(3,5-F2)][aThr]P[NMeT]A[Pro(4S-Me)]; ester 2-C) | 100 µM | 0.1 µM (≈ 0.0826 µg/mL)
